Holding throughout (assay type): functional
One test has as its system Escherichia coli. Briefly: Antibacterial activity against Escherichia coli by broth dilution method.
Test [1] deals with Aspergillus niger. As to the kind of experiment: Antifungal activity against Aspergillus niger at 150 ug. The settings on record: read-out: DIZ.
Test [2] relates to Rhizopus arrhizus. Briefly: Antifungal activity against Rhizopus oryzae at 100 ug. The settings on record: read-out: DIZ.
For another test, the system named is Staphylococcus aureus. Briefly: Antibacterial activity against Staphylococcus aureus MTCC 11 by broth dilution method. Background: Dilution methods test growth across graded concentrations, often in twofold steps.
Test [3] deals with Rhizopus arrhizus. As to the kind of experiment: Antifungal activity against Rhizopus oryzae at 150 ug. As to conditions: read-out: DIZ.
Test [4] has as its system Aspergillus niger. Briefly: Antifungal activity against Aspergillus niger at 100 ug. The settings on record: read-out: DIZ.
The test system of test [5] is Candida albicans. Briefly: Antifungal activity against Candida albicans at 100 ug. The settings on record: read-out: DIZ.
Test [6] concerns Candida albicans. Briefly: Antifungal activity against Candida albicans at 150 ug. The settings on record: read-out: DIZ.
The subject of another test is Bacillus subtilis. As to the kind of experiment: Antibacterial activity against Bacillus subtilis MTCC 441 by broth dilution method.
Another test deals with Pseudomonas aeruginosa. Briefly: Antibacterial activity against Pseudomonas aeruginosa MTCC 741 by broth dilution method.
The subject of test [7] is Saccharomyces cerevisiae. As to the kind of experiment: Antifungal activity against Saccharomyces cerevisiae at 100 ug. The settings on record: read-out: DIZ.
Test [8] deals with Saccharomyces cerevisiae. As to the kind of experiment: Antifungal activity against Saccharomyces cerevisiae at 150 ug. The settings on record: read-out: DIZ.

The values that follow come from ChEMBL document CHEMBL1155346, “Synthesis, photochemical E (trans)-->Z (cis) isomerization and antimicrobial activity of 2-chloro-5-methylpyridine-3-olefin derivatives” (2009).

≈ marks a conversion by molar mass, not a printed value.

What is called MIC is the smallest concentration in the dilution series that meets the test's criterion for growth inhibition. For the molecule `CC(=O)/C=C/c1cc(C)cnc1Cl`, the minimal inhibitory concentration (MIC) worked out at 75 µg/mL (≈ 383 µM) with Escherichia coli, 37.5 µg/mL (≈ 192 µM) in the test on Staphylococcus aureus, 37.5 µg/mL (≈ 192 µM) against Bacillus subtilis and 75 µg/mL (≈ 383 µM) against Pseudomonas aeruginosa. For the same molecule, the zone of inhibition at 150 µg/disc with Aspergillus niger [1] is 14 mm; with Rhizopus arrhizus [3], 13 mm; in the test on Candida albicans [6] it was 17 mm. The results for the zone of inhibition at 100 µg/disc in the test on Rhizopus arrhizus [2], in the test with Aspergillus niger [4] and with Candida albicans [5] were 12 mm, 13 mm and 13 mm, respectively.

Turning to `Cc1cnc(Cl)c(/C=C/C#N)c1`, the MIC against Escherichia coli, in the test on Staphylococcus aureus, against Bacillus subtilis and in the test with Pseudomonas aeruginosa was 75 µg/mL (≈ 420 µM) in each case. Further, the zone of inhibition at 150 µg/disc with Aspergillus niger [1] is 15 mm; in the test on Rhizopus arrhizus [3], 12 mm; in the test on Candida albicans [6] it was 12 mm. Besides, the zone of inhibition at 100 µg/disc in the test with Rhizopus arrhizus [2] worked out at 10 mm; with Aspergillus niger [4], 13 mm; with Candida albicans [5] it was 10 mm.

`CC1(C)S[C@@H]2[C@H](NC(=O)Cc3ccccc3)C(=O)N2[C@H]1C(=O)O` [PENICILLIN G]: the MIC worked out at 12.5 µg/mL (≈ 37.4 µM) against Escherichia coli, 1.56 µg/mL (≈ 4.67 µM) against Staphylococcus aureus, 1.56 µg/mL (≈ 4.67 µM) against Bacillus subtilis and 12.5 µg/mL (≈ 37.4 µM) against Pseudomonas aeruginosa.

On to `CC(=O)/C=C\c1cc(C)cnc1Cl`, for which the MIC is 37.5 µg/mL (≈ 192 µM) in the test with Escherichia coli, 75 µg/mL (≈ 383 µM) against Staphylococcus aureus, 37.5 µg/mL (≈ 192 µM) with Bacillus subtilis and 37.5 µg/mL (≈ 192 µM) against Pseudomonas aeruginosa. Besides, the zone of inhibition at 150 µg/disc amounted to 16 mm in the test on Aspergillus niger [1], 13 mm in the test on Rhizopus arrhizus [3] and 11 mm in the test with Candida albicans [6]. Besides, the results for the zone of inhibition at 100 µg/disc in the test on Rhizopus arrhizus [2], in the test on Aspergillus niger [4] and with Candida albicans [5] were 11 mm, 14 mm and 9 mm, respectively.

For the molecule `COC(=O)/C=C/c1cc(C)cnc1Cl`, the MIC came out at 37.5 µg/mL (≈ 177 µM) with Escherichia coli, 75 µg/mL (≈ 354 µM) against Staphylococcus aureus, 37.5 µg/mL (≈ 177 µM) in the test on Bacillus subtilis and 75 µg/mL (≈ 354 µM) against Pseudomonas aeruginosa. In addition, the results for the zone of inhibition at 150 µg/disc in the test with Aspergillus niger [1], in the test on Rhizopus arrhizus [3] and with Candida albicans [6] were 17 mm, 11 mm and 11 mm, respectively. Also, the zone of inhibition at 100 µg/disc in the test with Rhizopus arrhizus [2] turned out to be 10 mm; in the test with Aspergillus niger [4], 16 mm; with Candida albicans [5], 8 mm.

`CN[C@@H]1[C@H](O[C@H]2[C@H](O[C@H]3[C@H](O)[C@@H](O)[C@H](N=C(N)N)[C@@H](O)[C@@H]3N=C(N)N)O[C@@H](C)[C@]2(O)C=O)O[C@@H](CO)[C@H](O)[C@H]1O` [STREPTOMYCIN]: the MIC against Escherichia coli stood at 1.56 µg/mL (≈ 2.69 µM); in the test with Staphylococcus aureus it was 6.25 µg/mL (≈ 10.7 µM); with Bacillus subtilis it was 6.25 µg/mL (≈ 10.7 µM); with Pseudomonas aeruginosa, 3.12 µg/mL (≈ 5.37 µM).

For `C[C@@H]1[C@H](O)[C@@H](C)/C=C/C=C/C=C/C=C/C=C/C=C/C=C/[C@H](O[C@@H]2O[C@H](C)[C@@H](O)[C@H](N)[C@@H]2O)C[C@@H]2O[C@](O)(C[C@@H](O)C[C@@H](O)[C@H](O)CC[C@@H](O)C[C@@H](O)CC(=O)O[C@H]1C)C[C@H](O)[C@H]2C(=O)O` [AMPHOTERICIN B], the zone of inhibition at 100 µg/disc with Rhizopus arrhizus [2] is 23 mm; with Saccharomyces cerevisiae [7], 22 mm; in the test on Aspergillus niger [4], 26 mm; in the test with Candida albicans [5], 23.5 mm.

`Cc1cnc(Cl)c(/C=C\C#N)c1`: the MIC in the test on Escherichia coli was 37.5 µg/mL (≈ 210 µM); with Staphylococcus aureus, 75 µg/mL (≈ 420 µM); against Bacillus subtilis, 37.5 µg/mL (≈ 210 µM); against Pseudomonas aeruginosa it was 75 µg/mL (≈ 420 µM). In addition, the zone of inhibition at 150 µg/disc with Aspergillus niger [1] worked out at 12 mm; in the test on Rhizopus arrhizus [3], 10 mm; in the test with Candida albicans [6], 10 mm. Moreover, the zone of inhibition at 100 µg/disc in the test on Rhizopus arrhizus [2] and with Aspergillus niger [4] was 9 mm in each case.

Regarding `COC(=O)/C=C\c1cc(C)cnc1Cl`, the MIC against Escherichia coli is 37.5 µg/mL (≈ 177 µM); with Staphylococcus aureus it was 8.12 µg/mL (≈ 38.4 µM); in the test with Bacillus subtilis, 37.5 µg/mL (≈ 177 µM); with Pseudomonas aeruginosa it was 37.5 µg/mL (≈ 177 µM). The zone of inhibition at 150 µg/disc in the test with Aspergillus niger [1] was determined as 17 mm; in the test with Rhizopus arrhizus [3] it was 11 mm; with Candida albicans [6], 13 mm. Besides, the zone of inhibition at 100 µg/disc in the test with Rhizopus arrhizus [2] came to 10 mm; with Aspergillus niger [4], 14 mm; in the test on Candida albicans [5], 11 mm.

Consider `Cc1cnc(Cl)c(/C=C/CO)c1`, for which the MIC in the test with Escherichia coli worked out at 37.5 µg/mL (≈ 204 µM); against Staphylococcus aureus, 75 µg/mL (≈ 408 µM); in the test with Bacillus subtilis, 37.5 µg/mL (≈ 204 µM); with Pseudomonas aeruginosa, 37.5 µg/mL (≈ 204 µM). Besides, the zone of inhibition at 150 µg/disc with Aspergillus niger [1] came out at 17 mm; with Rhizopus arrhizus [3], 18 mm; with Candida albicans [6] it was 15 mm; in the test on Saccharomyces cerevisiae [8], 14 mm. Moreover, the zone of inhibition at 100 µg/disc with Rhizopus arrhizus [2] stood at 16 mm; with Saccharomyces cerevisiae [7], 12 mm; in the test on Aspergillus niger [4] it was 14 mm; with Candida albicans [5], 13 mm.

In the case of `Cc1cnc(Cl)c(/C=C\CO)c1`, the MIC in the test with Escherichia coli amounted to 75 µg/mL (≈ 408 µM); in the test with Staphylococcus aureus it was 37.5 µg/mL (≈ 204 µM); against Bacillus subtilis it was 37.5 µg/mL (≈ 204 µM); in the test on Pseudomonas aeruginosa, 75 µg/mL (≈ 408 µM). In addition, the zone of inhibition at 150 µg/disc came out at 16 mm in the test on Aspergillus niger [1], 17 mm in the test with Rhizopus arrhizus [3], 14 mm in the test on Candida albicans [6] and 13 mm in the test on Saccharomyces cerevisiae [8]. For the same molecule, the zone of inhibition at 100 µg/disc turned out to be 14 mm with Rhizopus arrhizus [2], 11 mm with Saccharomyces cerevisiae [7], 12 mm in the test with Aspergillus niger [4] and 11 mm in the test on Candida albicans [5].
